{"source": "patent US11827628B2", "about": "“Compositions and methods for inhibition of the JAK pathway” (Rigel Pharmaceuticals, Inc., priority 2005, dated 2023)"}
{"system": "up-regulation of ICAM-1 (CD54) by IFNγ in U937 human monocytic cells", "test": "U937 IFNγ ICAM1 FACS Assay", "type": "cell-based", "settings": "U937 cells stimulated with IFNγ; ICAM-1 expression by FACS; read-out: IC50, Example 44", "in_short": "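Readout was the geometric-mean APC anti-ICAM-1 signal by FACS on live U937 monocytic cells, with % live cells also recorded. Cells were exposed to compounds (8 points, 3-fold dilutions, duplicates) for 30 min at 37 °C before 18–24 h of IFNγ stimulation. EC50 values were computed from the dose curve.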", "units": {"IC50": "µM"}}
{"molecule": "Cc1cc(COc2ccc(Nc3nc(Nc4cc(Cl)c(C)c(S(N)(=O)=O)c4)ncc3F)cc2F)no1", "note": "[Compound I-223, N2-(3-Aminosulfonyl-5-chloro-4-methylphenyl)-5-fluoro-N4-[3-fluoro-4-(5-methylisoxazol-3-yl)methyleneoxyphenyl]-2,4-pyrimidinediamine]", "IC50": 1.21}
{"molecule": "Cc1ccc(Nc2ncc(F)c(Nc3ccc(OC4CCCN(C)C4)cc3)n2)cc1S(N)(=O)=O", "note": "(racemic) [II-4, Racemic N2-(3-aminosulfonyl-4-methylphenyl)-5-fluoro-N4-{4-[(1-methylpiperidin-3-yl)oxy]phenyl}-2,4-pyrimidinediamine]", "IC50": 3.51}
{"molecule": "Cc1ccc(Nc2ncc(F)c(Nc3ccc(OC4CCCN(C)C4)c(Cl)c3)n2)cc1S(N)(=O)=O", "note": "(racemic) [II-3, Racemic N2-(3-aminosulfonyl-4-methylphenyl)-N4-{3-chloro-4-[(1-methylpiperidin-3-yl)oxy]phenyl}-5-fluoro-2,4-pyrimidinediamine]", "IC50": 6.5}
{"molecule": "Cc1noc(COc2ccc(Nc3nc(Nc4cc(C)c(Cl)c(S(N)(=O)=O)c4)ncc3F)cc2)n1", "note": "[Compound I-265, N2-(3-Aminosulfonyl-4-chloro-5-methylphenyl)-5-fluoro-N4-[4-(3-methyl-1,2,4-oxadiazol-5-yl)methyleneoxyphenyl]-2,4-pyrimidinediamine]", "IC50": 0.415}
{"molecule": "N#CCOc1ccc(Nc2nc(Nc3cccc(S(N)(=O)=O)c3)ncc2F)cc1", "note": "[Compound I-17, N2-(3-Aminosulfonyl)phenyl-N4-(4-cyanomethoxy)phenyl-5-fluoro-2,4-pyrimidinediamine]", "IC50": 0.365}
{"molecule": "N#CCc1ccc(Nc2nc(Nc3ccc(F)c(S(N)(=O)=O)c3)ncc2F)cc1", "note": "[III-10, N2-(3-Aminosulfonyl-4-fluoro)phenyl-N4-(4-cyanomethyl)phenyl-5-fluoro-2,4-pyrimidinediamine]", "IC50": 3.52}
{"molecule": "CN1CCC(Oc2ccc(Nc3nc(Nc4cccc(S(N)(=O)=O)c4)ncc3F)cc2)C1", "note": "(stereo not drawn) [II-9, N2-(3-Aminosulfonylphenyl)-5-fluoro-N4-(N-methylpyrrolidin-3-yloxyphenyl)-2,4-pyrimidinediamine]", "IC50": 2.72}
{"molecule": "Cc1nc(COc2ccc(Nc3nc(Nc4cccc(S(N)(=O)=O)c4)ncc3F)cc2)cs1", "note": "[Compound I-281, N2-(3-Aminosulfonylphenyl)-5-fluoro-N4-[4-(2-methylthiazol-4-yl)methyleneoxyphenyl]-2,4-pyrimidinediamine]", "IC50": 0.975}
{"molecule": "N2-(3-Aminocarbonyl-5-methylphenyl)-5-fluoro-N2-[4-(1-ethylpyrazol-5-yl)amidophenyl)-2,4-pyrimidinediamine [II-20]", "IC50": 11.5}
{"molecule": "N2-[3-Aminosulfonyl-4-(4-methylpiperazin-1-yl)phenyl]-5-fluoro-N4-[2-fluoro-4-(5-methylisoxazol-3-yl)methyleneoxyphenyl]-2,4-pyrimidinediamine [Compound I-251]", "IC50": 1.09}
{"molecule": "CCN(CC)CCNS(=O)(=O)c1ccc(Nc2ncc(F)c(Nc3cccc(OCc4nc(C)no4)c3)n2)cc1", "note": "[Compound I-256, N2-[4-(2-N,N-Diethylaminoethyl)aminosulfonylphenyl)-5-fluoro-N4-[3-(3-methyl-1,2,4-oxadiazol-5-yl)methyleneoxyphenyl]-2,4-pyrimidinediamine]", "IC50": 15.9}
{"molecule": "Cc1noc(COc2ccc(Nc3nc(Nc4cccc(S(=O)(=O)NCc5oc(=O)oc5C)c4)ncc3F)cc2)n1", "note": "[Compound I-257, N2-{3-[(N-5-Methyl-1,3-dioxolene-2-one-4-yl)methylene]aminosulfonylphenyl}-5-fluoro-N4-[4-(3-methyl-1,2,4-oxadiazol-5-yl)methyleneoxyphenyl]-2,4-pyrimidinediamine]", "IC50": 0.959}
{"molecule": "Cc1nc(COc2ccc(Nc3nc(Nc4ccc(S(N)(=O)=O)cc4)ncc3F)cc2)cs1", "note": "[Compound I-285, N2-(4-Aminosulfonylphenyl)-5-fluoro-N4-[4-(2-methylthiazol-4-yl)methyleneoxyphenyl]-2,4-pyrimidinediamine]", "IC50": 1.49}
{"molecule": "CCN(CC)CCNS(=O)(=O)c1cccc(Nc2ncc(F)c(Nc3ccc(OCc4cc(C)on4)cc3)n2)c1", "note": "[Compound I-241, N2-[3-(2-N,N-Diethylaminoethyl)aminosulfonylphenyl)-5-fluoro-N4-[4-(5-methylisoxazol-3-yl)methyleneoxyphenyl]-2,4-pyrimidinediamine]", "IC50": 2.87}
{"molecule": "NS(=O)(=O)c1cccc(Nc2ncc(F)c(Nc3cccc(CNC(=O)C4CC4)c3)n2)c1", "note": "[III-39, N2-(3-aminosulfonyl)phenyl-N4-(3-cyclopropylcarbonylaminomethyl)phenyl-5-fluoro-2,4-pyrimidinediamine]", "IC50": 1.44}
{"molecule": "CCN(CC)CCNS(=O)(=O)c1ccc(Nc2ncc(F)c(Nc3ccc(OCc4nc(C)no4)cc3)n2)cc1", "note": "[Compound I-263, N2-[4-(2-N,N-Diethylaminoethyl)aminosulfonylphenyl)-5-fluoro-N4-[4-(3-methyl-1,2,4-oxadiazol-5-yl)methyleneoxyphenyl]-2,4-pyrimidinediamine]", "IC50": 0.665}
{"molecule": "Cc1cc(COc2ccc(Nc3nc(Nc4cccc(S(N)(=O)=O)c4)ncc3F)cc2C)no1", "note": "[Compound I-238, N2-(3-Aminosulfonylphenyl)-5-fluoro-N4-[3-methyl-4-(5-methylisoxazol-3-yl)methyleneoxyphenyl]-2,4-pyrimidinediamine]", "IC50": 1.13}
{"molecule": "Cc1noc(CCc2ccc(Nc3nc(Nc4ccc(F)c(S(N)(=O)=O)c4)ncc3F)cc2)n1", "note": "[Compound I-267, N2-(3-Aminosulfonyl-4-fluorophenyl)-5-fluoro-N4-[4-(3-methyl-1,2,4-oxadiazol-5-yl)ethylenephenyl]-2,4-pyrimidinediamine]", "IC50": 5.07}
{"molecule": "N#CCCc1ccc(Nc2nc(Nc3cccc(S(N)(=O)=O)c3)ncc2F)cc1", "note": "[III-14, N2-(3-aminosulfonylphenyl)-N4-[4-(cyanoethylene)phenyl]-5-fluoro-2,4-pyrimidinediamine]", "IC50": 0.585}
{"molecule": "Cc1ccc(Nc2ncc(F)c(Nc3ccc(OCC#N)cc3)n2)cc1S(N)(=O)=O", "note": "[Compound I-20, N2-(3-Aminosulfonyl-4-methyl)phenyl-N4-(4-cyanomethoxy)phenyl-5-fluoro-2,4-pyrimidinediamine]", "IC50": 0.339}
{"molecule": "N#CCc1ccc(Nc2nc(Nc3cccc(S(N)(=O)=O)c3)ncc2F)cc1", "note": "[III-4, N2-(3-Aminosulfonyl)phenyl-N4-(4-cyanomethyl)phenyl-5-fluoro-2,4-pyrimidinediamine]", "IC50": 1.72}
{"molecule": "Cc1ccc(Nc2ncc(F)c(Nc3cccc(OC4CCCN(C)C4)c3)n2)cc1S(N)(=O)=O", "note": "(racemic) [II-1, Racemic N2-(3-aminosulfonyl-4-methylphenyl)-5-fluoro-N4-{3-[(1-methylpiperidin-3-yl)oxy]phenyl}-2,4-pyrimidinediamine]", "IC50": 8.33}
{"molecule": "Cc1cc(COc2ccc(Nc3nc(Nc4cc(Cl)c(C)c(S(N)(=O)=O)c4)ncc3F)cc2C)no1", "note": "[Compound I-216, N2-(3-Aminosulfonyl-5-chloro-4-methylphenyl)-5-fluoro-N4-[3-methyl-4-(5-methylisoxazol-3-yl)methyleneoxyphenyl]-2,4-pyrimidinediamine]", "IC50": 1.57}
{"molecule": "CN1CCN(S(=O)(=O)c2cccc(Nc3ncc(F)c(Nc4ccc(OCC#N)cc4)n3)c2)CC1", "note": "[Compound I-19, N4-(4-Cyanomethoxy)phenyl-5-fluoro-N2-[3-(4-methylpiperazin-1-yl)sulfonyl]phenyl-2,4-pyrimidinediamine]", "IC50": 10.1}
{"molecule": "N#CCCc1ccc(Nc2nc(Nc3cccc(S(N)(=O)=O)c3)ncc2F)cc1C(F)(F)F", "note": "[III-31, N4-(4-Cyanoethylene-3-trifluoromethylphenyl)-5-fluoro-N2-(3-aminosulfonylphenyl)-2,4-pyrimidinediamine]", "IC50": 1.7}
{"molecule": "Cc1noc(COc2cccc(Nc3nc(Nc4ccc(C)c(S(N)(=O)=O)c4)ncc3F)c2)n1", "note": "[Compound I-254, N2-(3-Aminosulfonyl-4-methylphenyl)-5-fluoro-N4-[3-(3-methyl-1,2,4-oxadiazol-5-yl)methyleneoxyphenyl]-2,4-pyrimidinediamine]", "IC50": 1.82}
{"molecule": "Cc1cc(COc2ccc(Nc3nc(Nc4cc(C)c(Cl)c(S(N)(=O)=O)c4)ncc3F)cc2)no1", "note": "[Compound I-218, N2-(3-Aminosulfonyl-4-chloro-5-methylphenyl)-5-fluoro-N4-[4-(5-methylisoxazol-3-yl)methyleneoxyphenyl]-2,4-pyrimidinediamine]", "IC50": 0.434}
{"molecule": "Cc1noc(COc2ccc(Nc3nc(Nc4ccc(F)c(S(N)(=O)=O)c4)ncc3F)cc2)n1", "note": "[Compound I-266, N2-(3-Aminosulfonyl-4-fluorophenyl)-5-fluoro-N4-[4-(3-methyl-1,2,4-oxadiazol-5-yl)methyleneoxyphenyl]-2,4-pyrimidinediamine]", "IC50": 0.824}
{"molecule": "N#CCOc1ccc(Nc2nc(Nc3ccc(F)c(S(N)(=O)=O)c3)ncc2F)cc1", "note": "[Compound I-33, N2-(3-Aminosulfonyl-4-fluoro)phenyl-N4-(4-cyanomethoxy)phenyl-5-fluoro-2,4-pyrimidinediamine]", "IC50": 0.897}
{"molecule": "N2-(3-Aminocarbonyl-5-methylphenyl)-5-fluoro-N2-[4-(1-methylpyrazol-5-yl)amidophenyl)-2,4-pyrimidinediamine [II-21]", "IC50": 41.7}
{"molecule": "Cc1cc(COc2ccc(Nc3nc(Nc4ccc(C)c(S(N)(=O)=O)c4)ncc3F)cc2C)no1", "note": "[Compound I-234, N2-(3-Aminosulfonyl-4-methylphenyl)-5-fluoro-N4-[3-methyl-4-(5-methylisoxazol-3-yl)methyleneoxyphenyl]-2,4-pyrimidinediamine]", "IC50": 2.02}
{"molecule": "N#CCc1ccc(Nc2nc(Nc3ccc(Cl)c(S(N)(=O)=O)c3)ncc2F)cc1", "note": "[III-8, N2-(3-Aminosulfonyl-4-chloro)phenyl-N4-(4-cyanomethyl)phenyl-5-fluoro-2,4-pyrimidinediamine]", "IC50": 2.25}
{"molecule": "Cc1cc(COc2ccc(Nc3nc(Nc4cccc(S(=O)(=O)N(Cc5oc(=O)oc5C)Cc5oc(=O)oc5C)c4)ncc3F)cc2)no1", "note": "[Compound I-248, N2-{3-[N-N-Di-[(5-Methyl-1,3-dioxolene-2-one-4-yl)methylene]]aminosulfonylphenyl}-5-fluoro-N4-[4-(5-methylisoxazol-3-yl)methyleneoxyphenyl]-2,4-pyrimidinediamine]", "IC50": 2.66}
